Each block holds one compound with its values, some of them ahead of it.
Tests used:
Format in all cases: physicochemical
[1] = Example 27: release of phenol from 2′,6′-diacetyl-phenyl-O-β-D-3′-ketoglucopyranoside, 0.1 M deuterated phosphate buffer or D2O, 33% D6-DMSO, 32° C.
Description: (§1) 0.1 M of pH 5.8 and 7.4 stock buffered solutions of sodium dihydrogen phosphate and disodium hydrogen phosphate were prepared in deuterated water (D2O).
A stock solution of 25 mg of 2′,6′-diacetyl-phenyl-O-β-D-3′-ketoglucopyranoside in 1.0 mL of D6-DMSO were prepared.
(§2) To three parallel reaction vials, where indicated in the reaction table below, was added 0.20 mL of the glycoside substrate solutions in D6-DMSO and 0.40 mL of low or high pH 0.1M phosphate buffer in D2O and the mixtures incubated by shaking at 32° C. After times indicated in table below, the mixtures where analysed by ^1H-NMR in a 400 MHz instrument.

[2] = Example 18: release of picaridin from 250 μM picaridin-O-β-D-3′-ketoglucopyranoside in different pH aqueous buffers, 32° C., UPLC
Description: In this example the rate of release of picaridin from a solution of sec-butyl 2-(2-(((2R,3S,5R,6R)-3,5-dihydroxy-6-(hydroxymethyl)-4-oxotetrahydro-2H-pyran-2-yl)oxy)ethyl)piperidine-1-carboxylate (picaridin-O-β-D-3′-ketoglucopyranoside) different pH aqueous buffers was determined.
Parallel mixtures containing 250 μM picaridin-O-β-D-3′-ketoglucopyranoside in 0.05M K2HPO4 0.95M/KH2PO4, pH=8.5 buffer (Reaction 1), 0.17M Na2HPO4/0.02M citric acid, pH=7 buffer (Reaction 2), 0.12M Na2HPO4/0.04M citric acid buffer, pH=5.8 (Reaction 3) and 0.04M sodium citrate/0.06M citric acid buffer, pH=4 (Reaction 4) were incubated at 32° C. Aliquots of 10 μl were periodically taken, diluted with MeCN (90 μl) and analysed by UPLC using the following instrument and conditions: • Stationary phase: Acquity UPLC® BEH C18 1.7 μm (2.1 mm×50 mm) (Waters) • Mobile phase: A: water+0.1% formic acid; B: acetonitrile+0.1% formic acid • The chromatographic equipment employed was an UPLC QSM Waters Acquity. • Gradient conditions:
• Flow Rate(mL/min) 0.6 • Source Temperature (° C.) 150 • Desolvation Temperature (° C.) 500 • Cone Gas Flow (L/Hr) 50 • Desolvation Gas Flow (L/Hr) 900 • Target Column Temperature 35° C.
Target Sample Temperature 8.0° C.

[3] = Example 26: release of geraniol from 2′,6′-diacetyl-geranyl-O-β-D-3′-ketoglucopyranoside, 0.1 M deuterated phosphate buffer, 50% D6-DMSO, 32° C.
Description: In this example the rate of release of geraniol from (((2R,3R,5S)-5-acetoxy-6-(((E)-3,7-dimethylocta-2,6-dien-1-yl)oxy)-3-hydroxy-4-oxotetrahydro-2H-pyran-2-yl)methyl acetate (2′,6′-Diacetyl-geranyl-O-β-D-3′-ketoglucopyranoside) in 0.1 M deuterated phosphate buffer solutions of differing pH containing 50% D6-DMSO was determined.
as §1
A stock solution of 15 mg of 2′,6′-diacetyl-geranyl-O-β-D-3′-ketoglucopyranoside in 1.5 mL of D6-DMSO were prepared.
as §2, with “two” for “three”, “0.35” for “0.20”, “0.35” for “0.40”

[4] = Example 19: release of cis-PMD from cis-PMD-O-β-D-3′-ketoglucopyranoside, 0.1 M deuterated phosphate buffer, 33% D6-DMSO, 32° C.
Description: In this example the rate of release of cis-PMD from (2R,3R,5S)-3,5-dihydroxy-2-(hydroxymethyl)-6-((5-(2-hydroxypropan-2-yl)-2-methylcyclohexyl)oxy)tetrahydro-4H-pyran-4-one (cis-PMD-O-β-D-3′-ketoglucopyranoside) in 0.1 M deuterated phosphate buffer solutions of differing pH containing 33% D6-DMSO was determined. 0.1 M of pH 5.8 and 7.4 stock buffered solutions of sodium dihydrogen phosphate and disodium hydrogen phosphate were prepared in deuterated water (D2O).
A stock solution of 10 mg of cis-PMD-O-β-D-3′ketoglucopyranoside in 0.5 mL of D6-DMSO were prepared.
as §2, with “two” for “three”, “[…]” for “0.40”

[5] = Example 14: release of eugenol from eugenyl-O-β-D-3′-ketoglucopyranoside, 0.1 M deuterated phosphate buffer or D2O, 33% D6-DMSO, 32° C.
Description: In this example the rate of release of eugenol from (2S,3S,5R,6R)-2-(4-allyl-2-methoxyphenoxy)-3,5-dihydroxy-6-(hydroxymethyl)tetrahydro-4H-pyran-4-one (eugenyl-O-β-D-3′-ketoglucopyranoside) in 0.1 M deuterated phosphate buffer solutions of differing pH containing 33% D6-DMSO was determined.
as §1
A stock solution of 15 mg of eugenyl-O-β-D-3′-ketoglucopyranoside in 1.0 mL of D6-DMSO were prepared.
as §2, with “D2O or D2O” for “D2O”

Compound: CC(=O)OC[C@H]1O[C@@H](Oc2ccccc2)[C@H](OC(C)=O)C(=O)[C@@H]1O [((2R,3R,5S,6S)-5-acetoxy-3-hydroxy-4-oxo-6-phenoxytetrahydro-2H-pyran-2-yl)methyl acetate]
phenol release (in words) ([1]; 32° C.): generates phenol at both pH 5.8 and pH 7.4 and in D2O | % Conversion by 1H-NMR ([1]; D2O, 0 h): 0% | % Conversion by 1H-NMR ([1]; D2O, 4 h): 0% | % Conversion by 1H-NMR ([1]; D2O, 22 h): 10% | % Conversion by 1H-NMR ([1]; D2O, 70 h (printed under the 52 h column)): 21% | % Conversion by 1H-NMR ([1]; pH 5.8, 0 h): 14% | % Conversion by 1H-NMR ([1]; pH 5.8, 4 h): 18% | % Conversion by 1H-NMR ([1]; pH 5.8, 22 h): 24% | % Conversion by 1H-NMR ([1]; pH 5.8, 52 h): 26% | % Conversion by 1H-NMR ([1]; pH 5.8, 120 h): 36% | % Conversion by 1H-NMR ([1]; pH 5.8, 432 h): 54% | % Conversion by 1H-NMR ([1]; pH 7.4, 0 h): 19% | % Conversion by 1H-NMR ([1]; pH 7.4, 4 h): 43% | % Conversion by 1H-NMR ([1]; pH 7.4, 22 h): 74% | % Conversion by 1H-NMR ([1]; pH 7.4, 52 h): 81% | % Conversion by 1H-NMR ([1]; pH 7.4, 120 h): 93% | % Conversion by 1H-NMR ([1]; pH 7.4, 432 h): 100%

Compound: CCC(C)OC(=O)N1CCCCC1CCO[C@@H]1O[C@H](CO)[C@@H](O)C(=O)[C@H]1O (stereo partly drawn) [picaridin-O-β-D-3′-ketoglucopyranoside, sec-butyl 2-(2-(((2R,3S,5R,6R)-3,5-dihydroxy-6-(hydroxymethyl)-4-oxotetrahydro-2H-pyran-2-yl)oxy)ethyl) piperidine-1-carboxylate]
pH dependence of degradation (in words) ([2]; 32° C.): degraded at increasing rate between pH 4 and pH 8.5 | Picaridin released ([2]; Reaction 1, pH=8.5 buffer, 0 h): 1 µM | Picaridin released ([2]; Reaction 1, pH=8.5 buffer, 7 h): 2 µM | Picaridin released ([2]; Reaction 1, pH=8.5 buffer, 24 h): 7 µM | Picaridin released ([2]; Reaction 1, pH=8.5 buffer, 50 h): 15 µM | Picaridin released ([2]; Reaction 2, pH=7 buffer, 0 h): 1 µM | Picaridin released ([2]; Reaction 2, pH=7 buffer, 7 h): 1 µM | Picaridin released ([2]; Reaction 2, pH=7 buffer, 24 h): 2 µM | Picaridin released ([2]; Reaction 2, pH=7 buffer, 50 h): 4 µM | Picaridin released ([2]; Reaction 3, pH=5.8 buffer, 0 h): 0.25 µM | Picaridin released ([2]; Reaction 3, pH=5.8 buffer, 7 h): 0.75 µM | Picaridin released ([2]; Reaction 3, pH=5.8 buffer, 24 h): 1 µM | Picaridin released ([2]; Reaction 3, pH=5.8 buffer, 50 h): 2 µM | Picaridin released ([2]; Reaction 4, pH=4 buffer, 0 h): 0.25 µM | Picaridin released ([2]; Reaction 4, pH=4 buffer, 7 h): 0.75 µM | Picaridin released ([2]; Reaction 4, pH=4 buffer, 24 h): 1 µM | Picaridin released ([2]; Reaction 4, pH=4 buffer, 50 h): 1.75 µM

Compound: CC(=O)OC[C@H]1O[C@@H](OC/C=C(\C)CCC=C(C)C)[C@H](OC(C)=O)C(=O)[C@@H]1O [((2R,3R,5S,6R)-5-acetoxy-6-(((E)-3,7-dimethylocta-2,6-dien-1-yl)oxy)-3-hydroxy-4-oxotetrahydro-2H-pyran-2-yl)methyl acetate]
geraniol release (in words) ([3]; 32° C.): generates geraniol at both pH 5.8 and pH 7.4 | % Conversion by 1H-NMR ([3]; pH 5.8, 0 h): 0% | % Conversion by 1H-NMR ([3]; pH 5.8, 5 h): 10% | % Conversion by 1H-NMR ([3]; pH 5.8, 24 h): 20% | % Conversion by 1H-NMR ([3]; pH 5.8, 48 h): 39% | % Conversion by 1H-NMR ([3]; pH 5.8, 120 h): 43% | % Conversion by 1H-NMR ([3]; pH 5.8, 480 h): 92% | % Conversion by 1H-NMR ([3]; pH 5.8, column head 19 (between 120 h and 480 h)): 62% | % Conversion by 1H-NMR ([3]; pH 7.4, 0 h): 0% | % Conversion by 1H-NMR ([3]; pH 7.4, 5 h): 6% | % Conversion by 1H-NMR ([3]; pH 7.4, 24 h): 25% | % Conversion by 1H-NMR ([3]; pH 7.4, 48 h): 33% | % Conversion by 1H-NMR ([3]; pH 7.4, 120 h): 37% | % Conversion by 1H-NMR ([3]; pH 7.4, 480 h): 85% | % Conversion by 1H-NMR ([3]; pH 7.4, column head 19 (between 120 h and 480 h)): 55%

% Conversion by 1H-NMR ([4]; pH 5.8, 0 h): 0% | % Conversion by 1H-NMR ([4]; pH 5.8, 3 h): 0% | % Conversion by 1H-NMR ([4]; pH 5.8, 20 h): 0% | % Conversion by 1H-NMR ([4]; pH 5.8, 95 h): <5% | % Conversion by 1H-NMR ([4]; pH 7.4, 0 h): 0% | % Conversion by 1H-NMR ([4]; pH 7.4, 3 h): 12% | % Conversion by 1H-NMR ([4]; pH 7.4, 20 h): 39% | % Conversion by 1H-NMR ([4]; pH 7.4, 95 h): 45% | % Conversion by 1H-NMR ([4]; pH 7.4, 167 h): 85%
Compound: C[C@@H]1CC[C@@H](C(C)(C)O)C(O[C@@H]2O[C@H](CO)[C@@H](O)C(=O)[C@H]2O)C1 (mixture of isomers) [cis-PMD-O-β-D-3′-ketoglucopyranoside, (2R,3R,5S,6R)-3,5-dihydroxy-2-(hydroxymethyl)-6-(((1S,2R,5R)-2-(2-hydroxypropan-2-yl)-5-methylcyclohexyl)-oxy)tetrahydro-4H-pyran-4-one]
pH dependence of cis-PMD release (in words) ([4]; 32° C.): only slowly degraded at pH 5.8, but releases cis-PMD at a significantly higher rate at pH 7.4

% Conversion by 1H-NMR ([5]; D2O, 1 h): 3% | % Conversion by 1H-NMR ([5]; D2O, 5 h): 3% | % Conversion by 1H-NMR ([5]; D2O, 23 h): 5% | % Conversion by 1H-NMR ([5]; D2O, 69 h): 10% | % Conversion by 1H-NMR ([5]; pH 5.8, 1 h): 3% | % Conversion by 1H-NMR ([5]; pH 5.8, 5 h): 3% | % Conversion by 1H-NMR ([5]; pH 5.8, 23 h): 5% | % Conversion by 1H-NMR ([5]; pH 5.8, 69 h): 5% | % Conversion by 1H-NMR ([5]; pH 7.4, 1 h): 3% | % Conversion by 1H-NMR ([5]; pH 7.4, 5 h): 8% | % Conversion by 1H-NMR ([5]; pH 7.4, 23 h): 60% | % Conversion by 1H-NMR ([5]; pH 7.4, 69 h): 80%
Compound: C=CCc1ccc(O[C@@H]2O[C@H](CO)[C@@H](O)C(=O)[C@H]2O)c(OC)c1 [eugenyl-O-β-D-3′-ketoglucopyranoside, (2S,3S,5R,6R)-2-(4-allyl-2-methoxyphenoxy)-3,5-dihydroxy-6-(hydroxymethyl)tetrahydro-4H-pyran-4-one]
pH dependence of eugenol release (in words) ([5]; 32° C.): only slowly degraded at pH 5.8, but releases eugenol at a significantly higher rate at pH 7.4
